Data reported in patent publication US10287301B2 (Achillion Pharmaceuticals, Inc., priority 2015, dated 2019).
Where two headings read alike, the source gives them in different places.

Molecular target: Human Factor D (Homo sapiens (Human), UniProt P00746)
Assay: Human Factor D Assay
Assay type: biochemical
Method: Human Factor D (purified from human serum, Complement Technology, Inc.) at 80 nM final concentration was incubated with test compound at various concentrations for 5 minutes at room temperature in 50 mM Tris, 1M NaCl, pH 7.5. A synthetic substrate Z-L-Lys-SBzl and DTNB (Ellman's reagent) are added to final concentrations of 100 μM each. […] IC50 values are calculated by nonlinear regression of complement Factor D reaction rates as a function of test compound concentration.

[1] = Human Factor D 80 nM, substrate Z-L-Lys-SBzl, read-out: IC50
[2] = Human Factor D, Table 3, read-out: IC50
[3] = Human Factor D assay of Example 8, Table 2, read-out: IC50
[4] = Table 3, Human Factor D 80 nM, substrate Z-L-Lys-SBzl, read-out: IC50 (Stars)

Sequence of Human Factor D (P00746 26-253): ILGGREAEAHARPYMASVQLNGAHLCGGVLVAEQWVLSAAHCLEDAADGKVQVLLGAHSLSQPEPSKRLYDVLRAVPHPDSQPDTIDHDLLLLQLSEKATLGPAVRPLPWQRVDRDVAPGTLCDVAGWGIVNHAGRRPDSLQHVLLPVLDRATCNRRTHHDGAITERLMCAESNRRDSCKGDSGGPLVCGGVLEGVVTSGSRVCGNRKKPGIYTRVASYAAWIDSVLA

Row | SMILES | IC50 [1] [nM] | IC50 [4] [nM] | other results
1 | CC(=O)c1cn(CC(=O)N2C[C@H](F)C[C@H]2C(=O)Nc2ccccc2-c2nc3ccccc3s2)c2ccc(-c3ccnnc3)cc12 [Compound 34, (2S,4R)-1-(2-(3-acetyl-5-(pyridazin-4-yl)-1H-indol-1-yl)acetyl)-N-(2-(benzo[d]thiazol-2-yl)phenyl)-4-fluoropyrrolidine-2-carboxamide] |  |  | IC50: > 10000 nM
2 | NC(=O)c1nn(CC(=O)N2C[C@H](F)C[C@H]2C(=O)Nc2c[nH]nc2-c2ccc(Cl)cc2Cl)c2ccc(-c3ccnnc3)cc12 [Compound 94, 1-(2-((2S,4R)-2-(3-(2,4-dichlorophenyl)-1H-pyrazol-4-ylcarbamoyl)-4-fluoropyrrolidin-1-yl)-2-oxoethyl)-5-(pyridazin-4-yl)-1H-indazole-3-carboxamide] | > 10000 |  | 
3 | CC(=O)c1cn(CC(=O)N2C[C@H](F)C[C@H]2C(=O)Nc2ccccc2N2CCOC2=O)c2ccc(-c3ccnnc3)cc12 [Compound 64, (2S,4R)-1-(2-(3-acetyl-5-(pyridazin-4-yl)-1H-indol-1-yl)acetyl)-4-fluoro-N-(2-(2-oxooxazolidin-3-yl)phenyl) pyrrolidine-2-carboxamide] | > 10000 |  | 
4 | CC(=O)c1nn(CC(=O)N2[C@H](C(=O)Nc3ccn(CC(F)(F)F)n3)C[C@@]3(C)C[C@@H]23)c2ccc(-c3cnc(C)nc3)cc12 [Compound 625] |  |  | IC50 [2]: < 1000 nM
5 | CC(=O)c1cn(CC(=O)N2C[C@H](F)C[C@H]2C(=O)Nc2cccc(-c3ccccc3Cl)c2F)c2cc(O)c(-c3cnc(C)nc3)cc12 [Compound 320, (4R)-1-(2-(3-Acetyl-6-hydroxy-5-(2-methylpyrimidin-5-yl)-1H-indol-1-yl)acetyl)-N-(2′-chloro-2-fluoro-[1,1′-biphenyl]-3-yl)-4-fluoropyrrolidine-2-carboxamide] |  |  | IC50 [3]: < 1000 nM
6 | CC(=O)c1nn(CC(=O)N2C[C@H](F)C[C@H]2C(=O)Nc2cccc(OC(F)(F)F)n2)c2ccc(-c3cnc4ccnn4c3)cc12 [Compound 668, (2S,4R)-1-(2-(3-Acetyl-5-(pyrazolo[1,5-a]pyrimidin-6-yl)-1H-indazol-1-yl)acetyl)-4-fluoro-N-(6-(trifluoromethoxy)pyridin-2-yl)pyrrolidine-2-carboxamide] |  |  | IC50 [2]: < 1000 nM
7 | CC(=O)c1nn(CC(=O)N2[C@@H]3C[C@@H]3C[C@H]2C(=O)NC/C(F)=C(\C)c2ccccc2)c2ccc(-c3cnc(C)nc3)cc12 [Compound 557, (1R,3S,5R)-2-(2-(3-Acetyl-5-(2-methylpyrimidin-5-yl)-1H-indazol-1-yl)acetyl)-N—((Z)-2-fluoro-3-phenylbut-2-en-1-yl)-2-azabicyclo[3.1.0]hexane-3-carboxamide] |  |  | IC50 [2]: < 1000 nM
8 | CC(=O)c1nn(CC(=O)N2C[C@H](F)C[C@H]2C(=O)Nc2cccc(Br)n2)c2ccc(-c3cnn(-c4ncc(F)cn4)c3)cc12 [Compound 699, (2S,4R)-1-(2-(3-Acetyl-5-(1-(5-fluoropyrimidin-2-yl)-1H-pyrazol-4-yl)-1H-indazol-1-yl)acetyl)-N-(6-bromopyridin-2-yl)-4-fluoropyrrolidine-2-carboxamide] |  |  | IC50 [2]: < 1000 nM
9 | CCOC(=O)Cc1ncc(-c2ccc3c(c2)c(C(C)=O)nn3CC(=O)N2C[C@H](F)C[C@H]2C(=O)Nc2cccc(Br)n2)cn1 [Compound 537, Ethyl 2-(5-(3-acetyl-1-(2-((2S,4R)-2-((6-bromopyridin-2-yl)carbamoyl)-4-fluoropyrrolidin-1-yl)-2-oxoethyl)-1H-indazol-5-yl)pyrimidin-2-yl)acetate] |  | < 1000 | 
10 | CC(=O)c1nn(CC(=O)N2CC(F)(CN)C[C@H]2C(=O)Nc2cccc(Br)n2)c2ccc(-c3cnc(C)nc3)cc12 (stereo partly drawn) [Compound 399, (2S)-1-(2-(3-acetyl-5-(2-methylpyrimidin-5-yl)-1H-indazol-1-yl)acetyl)-4-(aminomethyl)-N-(6-bromopyridin-2-yl)-4-fluoropyrrolidine-2-carboxamide] |  | < 1000 | 
11 | Cn1cnnc1-c1ccccc1NC(=O)[C@@H]1C[C@@H](F)CN1C(=O)Cn1nc(C(N)=O)c2cc(-c3ccnnc3)ccc21 [Compound 98, 1-(2-((2S,4R)-4-fluoro-2-(2-(4-methyl-4H-1,2,4-triazol-3-yl)phenylcarbamoyl)pyrrolidin-1-yl)-2-oxoethyl)-5-(pyridazin-4-yl)-1H-indazole-3-carboxamide] | > 10000 |  | 
12 | CC(=O)O[C@H]1[C@@H](C(=O)Nc2cccc(Br)n2)N(C(=O)Cn2nc(C(C)=O)c3cc(-c4cnc(C)nc4)ccc32)C[C@@H]1F [Compound 452, (2S,3S,4S)-1-(2-(3-Acetyl-5-(2-methylpyrimidin-5-yl)-1H-indazol-1 yl)acetyl)-2-((6-bromopyridin-2-yl)carbamoyl)-4-fluoropyrrolidin-3-yl acetate] |  | < 1000 | 
13 | CC(=O)c1cn(CC(=O)N2C[C@H](F)C[C@H]2C(=O)Nc2ccc3ccccc3c2)c2ccc(-c3ccnnc3)cc12 [Compound 110, (2S,4R)-1-(2-(3-acetyl-5-(pyridazin-4-yl)-1H-indol-1-yl)acetyl)-4-fluoro-N-(naphthalen-2-yl)pyrrolidine-2-carboxamide] | > 10000 |  | 
14 | CC(=O)c1cn(CC(=O)N2C[C@H](F)C[C@H]2C(=O)NCc2ccccn2)c2ccc(-c3ccnnc3)cc12 [Compound 38, (2S,4R)-1-(2-(3-acetyl-5-(pyridazin-4-yl)-1H-indol-1-yl)acetyl)-4-fluoro-N-(pyridin-2-ylmethyl) pyrrolidine-2-carboxamide] | < 1000 |  | 
15 | COC[C@@]1(F)C[C@@H](C(=O)Nc2cccc(Br)n2)N(C(=O)Cn2nc(C(C)=O)c3cc(-c4cnc(C)nc4)ccc32)C1 [Compound 419, (2S,4R)-1-(2-(3-Acetyl-5-(2-methylpyrimidin-5-yl)-1H-indazol-1-yl)acetyl)-N-(6-bromopyridin-2-yl)-4-fluoro-4-(methoxymethyl)pyrrolidine-2-carboxamide] |  | < 1000 | 
16 | CC(=O)c1cn(CC(=O)N2C[C@H](F)C[C@H]2C(=O)Nc2cccc(-c3ccncc3Cl)c2F)c2ccc(-c3cnc(C)nc3)cc12 [Compound 206, (2S,4R)-1-(2-(3-acetyl-5-(2-methylpyrimidin-5-yl)-1H-indol-1-yl)acetyl)-N-(3-(3-chloropyridin-4-yl)-2-fluorophenyl)-4-fluoropyrrolidine-2-carboxamide] |  |  | IC50 [3]: < 1000 nM
17 | CCc1ccc(Br)nc1NC(=O)[C@@H]1C[C@@H](F)CN1C(=O)Cn1nc(C(C)=O)c2cc(-c3cnc(C)nc3)ccc21 [Compound 534, (2S,4R)-1-(2-(3-Acetyl-5-(2-methylpyrimidin-5-yl)-1H-indazol-1-yl)acetyl)-N-(6-bromo-3-ethylpyridin-2-yl)-4-fluoropyrrolidine-2-carboxamide] |  | < 1000 | 
18 | CC(=O)c1nn(CC(=O)N2C[C@H](F)C[C@H]2C(=O)Nc2cccc(-c3ccc4[nH]cnc4c3Cl)c2F)c2ccc(-c3cnc(C)nc3)cc12 [Compound 214, (2S,4R)-1-(2-(3-acetyl-5-(2-methylpyrimidin-5-yl)-1H-indazol-1-yl)acetyl)-N-(3-(4-chloro-1H-benzo[d]imidazol-5-yl)-2-fluorophenyl)-4-fluoropyrrolidine-2-carboxamide] |  |  | IC50 [3]: < 1000 nM
19 | CC(=O)c1nn(CC(=O)N2[C@@H]3C[C@@H]3C[C@H]2C(=O)NC/C(F)=C(/C)c2cccc(Cl)c2)c2ccc(-c3cnc(C)nc3)cc12 [Compound 506, (1R,3S,5R)-2-(2-(3-Acetyl-5-(2-methylpyrimidin-5-yl)-1H-indazol-1-yl)acetyl)-N-((E)-3-(3-chlorophenyl)-2-fluorobut-2-en-1-yl)-2-azabicyclo[3.1.0]hexane-3-carboxamide] |  | < 1000 | 
20 | Cc1cccc(NC(=O)[C@@H]2[C@H]3CC[C@H](C3)N2C(=O)Cn2cc(C(N)=O)c3cc(-c4cccnc4)ccc32)n1 [Compound 501, 1-(2-((1R,3S,4S)-3-(6-Methylpyridin-2-ylcarbamoyl)-2-azabicyclo[2.2.1]heptan-2-yl)-2-oxoethyl)-5-(pyridin-3-yl)-1H-indole-3-carboxamide] |  | > 10000 | 
21 | NC(=O)c1nn(CC(=O)N2C[C@H](F)C[C@H]2C(=O)Nc2noc3cc(C(F)(F)F)ccc23)c2ccc(-c3ccnnc3)cc12 [Compound 112, 1-(2-((2S,4R)-4-fluoro-2-(6-(trifluoromethyl)benzo[d]isoxazol-3-ylcarbamoyl)pyrrolidin-1-yl)-2-oxoethyl)-5-(pyridazin-4-yl)-1H-indazole-3-carboxamide] | > 10000 |  | 
22 | CC(=O)c1nn(CC(=O)N2C[C@H](F)C[C@H]2C(=O)Nc2nc(Br)cs2)c2ccc(-c3cnc(C)nc3)cc12 [Compound 448, (2S,4R)-1-(2-(3-Acetyl-5-(2-methylpyrimidin-5-yl)-1H-indazol-1-yl)acetyl)-N-(4-bromothiazol-2-yl)-4-fluoropyrrolidine-2-carboxamide] |  | < 1000 | 
23 | NC(=O)c1nn(CC(=O)N2C[C@H](F)C[C@H]2C(=O)Nc2ccc3cn[nH]c3c2)c2ccc(-c3ccnnc3)cc12 [Compound 86, 1-(2-((2S,4R)-2-(1H-indazol-6-ylcarbamoyl)-4-fluoropyrrolidin-1-yl)-2-oxoethyl)-5-(pyridazin-4-yl)-1H-indazole-3-carboxamide] | > 10000 |  | 
24 | CC(=O)c1nn(CC(=O)N2C[C@H](F)C[C@H]2C(=O)Nc2nc(Cl)cs2)c2ccc(-c3cnc(C)nc3)cc12 [Compound 258, (2S,4R)-1-(2-(3-acetyl-5-(2-methylpyrimidin-5-yl)-1H-indazol-1-yl)acetyl)-N-(4-chlorothiazol-2-yl)-4-fluoropyrrolidine-2-carboxamide] |  |  | IC50 [3]: < 1000 nM
25 | Cc1nc2sccn2c1-c1csc(NC(=O)[C@@H]2C[C@@H](F)CN2C(=O)Cn2nc(C(N)=O)c3cc(-c4ccnnc4)ccc32)n1 [Compound 58, 1-(2-((2S,4R)-4-fluoro-2-(4-(6-methylimidazo[2,1-b]thiazol-5-yl)thiazol-2-ylcarbamoyl)pyrrolidin-1-yl)-2-oxoethyl)-5-(pyridazin-4-yl)-1H-indazole-3-carboxamide] | > 10000 |  | 
